Laboratory results: ChEMBL document CHEMBL4393659, “Insights into the chemistry and therapeutic potential of furanones: A versatile pharmacophore” (Eur J Med Chem, 2019)
≈ marks a conversion by molar mass, not a printed value.

Key:
[1] = tested on: Escherichia coli; assay: Inhibition of swarming motility of Escherichia coli at 13 ug/cm2; type: functional
[2] = tested on: Bacillus subtilis; assay: Antibiofilm activity in Bacillus subtilis assessed as reduction in biofilm thickness at 40 ug/ml incubated for 3 days by confocal microscopy; type: functional; set-up: scale not given: the % may be the effect or the level left
[3] = tested on: Bacillus subtilis; assay: Antibacterial activity against Bacillus subtilis assessed as cell viability at 40 ug/ml incubated for 3 days by confocal microscopy; type: functional
[4] = tested on: Mus musculus; assay: Analgesic activity in albino mouse assessed as inhibition of acetic acid induced writhing at 10 mg/kg , po; type: functional
[5] = tested on: Rattus norvegicus; assay: Antiinflammatory activity in rat assessed as inhibition of carrageenan-induced paw edema at 10 mg/kg , po and measured after 4 hrs of carrageenan addition relative to control; type: functional
[6] = molecular target: Tyrosinase (Homo sapiens, UniProt P14679); assay: Inhibition of tyrosinase (unknown origin) assessed as reduction in melanin formation
Chain of Tyrosinase (P14679 whole entry): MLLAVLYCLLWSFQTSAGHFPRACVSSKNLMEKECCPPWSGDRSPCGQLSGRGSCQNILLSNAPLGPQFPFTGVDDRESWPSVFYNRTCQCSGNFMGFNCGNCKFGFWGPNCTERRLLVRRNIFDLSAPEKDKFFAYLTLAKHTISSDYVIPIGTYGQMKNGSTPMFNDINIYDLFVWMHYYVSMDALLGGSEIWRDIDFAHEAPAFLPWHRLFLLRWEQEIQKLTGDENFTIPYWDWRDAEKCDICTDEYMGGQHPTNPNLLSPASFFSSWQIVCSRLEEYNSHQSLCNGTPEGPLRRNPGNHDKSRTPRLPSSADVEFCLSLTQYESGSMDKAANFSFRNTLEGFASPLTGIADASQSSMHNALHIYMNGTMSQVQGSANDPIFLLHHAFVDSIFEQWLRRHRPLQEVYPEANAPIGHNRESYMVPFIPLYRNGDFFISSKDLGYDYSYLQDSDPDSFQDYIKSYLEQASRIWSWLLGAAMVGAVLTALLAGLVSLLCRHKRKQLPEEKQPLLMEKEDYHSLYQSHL

[7] = tested on: MOLT-4F; assay: Antiproliferative activity against human MOLT4F cells assessed as reduction in cell viability incubated for 72 hrs by coulter counter method; type: functional, cell-based
[8] = tested on: L1210; assay: Antiproliferative activity against mouse L1210 cells assessed as reduction in cell viability incubated for 48 hrs by coulter counter method; type: functional, cell-based; details: L1210, 48 h
[9] = tested on: MT4; assay: Antiproliferative activity against human MT4 cells assessed as reduction in cell viability; type: functional, cell-based
[10] = tested on: CCRF-CEM; assay: Antiproliferative activity against human CEM cells assessed as reduction in cell viability incubated for 48 hrs by coulter counter method; type: functional, cell-based
[11] = tested on: Mycobacterium tuberculosis; assay: Antimycobacterial activity against Mycobacterium tuberculosis H37Rv ATCC 27294 at 0.19 to 100 ug/ml incubated for 4 days by microplate alamar blue assay; type: functional, organism-based; details: H37Rv ATCC 27294, 96 h
[12] = tested on: Fusarium solani; assay: Antifungal activity against Fusarium solani assessed as reduction in fungal spore germination measured between 4 to 24 hrs by inverted microscopy; type: functional; details: read-out: ED50 (the source's name)
[13] = tested on: Berkeleyomyces basicola; assay: Antifungal activity against Thielaviopsis basicola assessed as reduction in fungal spore germination measured between 4 to 24 hrs by inverted microscopy; type: functional; details: read-out: ED50 (the source's name)
[14] = tested on: Fusarium oxysporum; assay: Antifungal activity against Fusarium oxysporum assessed as reduction in fungal spore germination measured between 4 to 24 hrs by inverted microscopy; type: functional; details: read-out: ED50 (the source's name)
[15] = tested on: Globisporangium ultimum; assay: Antifungal activity against Pythium ultimum assessed as reduction in fungal spore germination measured between 4 to 24 hrs by inverted microscopy; type: functional; details: read-out: ED50 (the source's name)
[16] = tested on: Rhizoctonia solani; assay: Antifungal activity against Rhizoctonia solani assessed as reduction in fungal germ tube growth measured between 4 to 24 hrs by inverted microscopy; type: functional; details: read-out: ED50 (the source's name)
[17] = molecular target: Cyclin-dependent kinase 5/CDK5 activator 1 (Homo sapiens, UniProt Q00535); assay: Inhibition of CDK5/p25 (unknown origin); type: protein-complex assay
Chain of Cyclin-dependent kinase 5/CDK5 activator 1 (Q00535 whole entry): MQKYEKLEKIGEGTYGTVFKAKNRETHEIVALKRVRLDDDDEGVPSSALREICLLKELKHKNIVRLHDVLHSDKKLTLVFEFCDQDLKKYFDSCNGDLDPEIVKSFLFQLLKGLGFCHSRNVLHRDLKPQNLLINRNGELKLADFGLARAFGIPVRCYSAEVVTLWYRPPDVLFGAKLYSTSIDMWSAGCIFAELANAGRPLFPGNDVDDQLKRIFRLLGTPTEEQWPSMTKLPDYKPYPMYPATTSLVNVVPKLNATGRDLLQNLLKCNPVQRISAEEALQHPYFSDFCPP
Chain of Cyclin-dependent kinase 5/CDK5 activator 1 (Q15078 whole entry, further chain): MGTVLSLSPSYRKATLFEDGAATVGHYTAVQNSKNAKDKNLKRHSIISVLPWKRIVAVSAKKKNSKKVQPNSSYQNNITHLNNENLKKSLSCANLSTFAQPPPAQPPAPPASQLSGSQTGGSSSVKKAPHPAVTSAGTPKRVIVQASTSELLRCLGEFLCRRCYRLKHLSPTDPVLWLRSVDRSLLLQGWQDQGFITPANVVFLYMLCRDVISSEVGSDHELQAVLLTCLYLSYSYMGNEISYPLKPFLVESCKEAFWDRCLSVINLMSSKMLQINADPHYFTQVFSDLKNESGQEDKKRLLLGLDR

[18] = molecular target: Glycogen synthase kinase-3 (Homo sapiens, UniProt P49840+P49841); assay: Inhibition of GSK3alpha/beta (unknown origin); type: protein assay
[19] = molecular target: Cyclin-dependent kinase 1/cyclin B1 (Homo sapiens, UniProt P06493); assay: Inhibition of CDK1/cyclinB (unknown origin); type: protein-complex assay
Chain of Cyclin-dependent kinase 1/cyclin B1 (P06493 whole entry): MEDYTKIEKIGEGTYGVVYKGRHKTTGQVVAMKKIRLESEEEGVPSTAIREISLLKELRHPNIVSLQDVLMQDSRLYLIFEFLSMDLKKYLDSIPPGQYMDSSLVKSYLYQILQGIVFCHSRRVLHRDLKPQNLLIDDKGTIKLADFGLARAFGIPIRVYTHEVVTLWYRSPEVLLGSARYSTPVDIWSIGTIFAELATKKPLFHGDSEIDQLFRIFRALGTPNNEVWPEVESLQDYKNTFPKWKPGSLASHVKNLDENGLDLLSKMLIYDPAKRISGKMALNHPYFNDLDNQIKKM
Chain of Cyclin-dependent kinase 1/cyclin B1 (P14635 whole entry, further chain): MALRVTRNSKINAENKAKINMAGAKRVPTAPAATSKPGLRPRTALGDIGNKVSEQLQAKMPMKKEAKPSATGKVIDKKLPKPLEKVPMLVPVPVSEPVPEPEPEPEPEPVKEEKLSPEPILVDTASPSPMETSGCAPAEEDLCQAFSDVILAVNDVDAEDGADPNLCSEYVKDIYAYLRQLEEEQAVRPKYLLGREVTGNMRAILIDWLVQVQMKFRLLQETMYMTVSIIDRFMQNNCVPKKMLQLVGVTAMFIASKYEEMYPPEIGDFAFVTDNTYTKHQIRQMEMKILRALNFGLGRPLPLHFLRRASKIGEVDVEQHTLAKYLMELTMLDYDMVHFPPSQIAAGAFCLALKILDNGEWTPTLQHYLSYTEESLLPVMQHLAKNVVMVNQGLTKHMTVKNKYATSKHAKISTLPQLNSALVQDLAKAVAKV

[20] = tested on: Pichia kudriavzevii; assay: Antifungal activity against Candida krusei E28 assessed as reduction in fungal cell viability measured after 24 and 48 hrs by photometry; type: functional
[21] = tested on: Candida albicans; assay: Antifungal activity against Candida albicans ATCC 44859 assessed as reduction in fungal cell viability measured after 24 and 48 hrs by photometry; type: functional
[22] = tested on: Lichtheimia corymbifera; assay: Antifungal activity against Absidia corymbifera assessed as reduction in fungal cell viability by broth dilution method; type: functional
[23] = tested on: Aspergillus fumigatus; assay: Antifungal activity against Aspergillus fumigatus assessed as reduction in fungal cell viability by broth dilution method; type: functional
[24] = tested on: Candida tropicalis; assay: Antifungal activity against Candida tropicalis 156 assessed as reduction in fungal cell viability measured after 24 and 72 hrs by photometry; type: functional
[25] = tested on: Aspergillus fumigatus; assay: Antifungal activity against Aspergillus fumigatus 231 assessed as reduction in fungal cell viability measured after 24 and 72 hrs by photometry; type: functional
[26] = tested on: Trichosporon beigelii; assay: Antifungal activity against Trichosporon beigelii 1188 assessed as reduction in fungal cell viability measured after 24 and 72 hrs by photometry; type: functional
[27] = tested on: Nakaseomyces glabratus; assay: Antifungal activity against Candida glabrata 20/I assessed as reduction in fungal cell viability measured after 24 and 72 hrs by photometry; type: functional
[28] = tested on: Trichophyton mentagrophytes; assay: Antifungal activity against Trichophyton mentagrophytes 445 assessed as reduction in fungal cell viability measured after 72 and 120 hrs by photometry; type: functional
[29] = tested on: Lichtheimia corymbifera; assay: Antifungal activity against Absidia corymbifera 272 assessed as reduction in fungal cell viability measured after 24 and 72 hrs by photometry; type: functional
[30] = tested on: Fusarium oxysporum; assay: Antifungal activity against Fusarium oxysporum CGMCC 3.2830 assessed as reduction in fungal cell growth incubated for 24 hrs by broth dilution method; type: functional; details: CGMCC 3.2830, 24 h
[31] = tested on: Pyricularia oryzae; assay: Antifungal activity against Pyricularia oryzae CGMCC 3.3283 assessed as reduction in fungal cell growth incubated for 24 hrs by broth dilution method; type: functional; details: CGMCC 3.3283, 24 h
[32] = tested on: Fusarium graminearum; assay: Antifungal activity against Gibberella zeae CGMCC 3.2873 assessed as reduction in fungal cell growth incubated for 24 hrs by broth dilution method; type: functional; details: CGMCC 3.2873, 24 h
[33] = tested on: Scedosporium boydii; assay: Antifungal activity against Pseudallescheria boydii BMU04772 assessed as reduction in fungal cell growth incubated for 24 hrs by broth dilution method; type: functional; details: BMU04772, 24 h
[34] = tested on: Diaphania hyalinata; assay: Insecticidal activity against Diaphania hyalinata assessed as reduction in living insects observed after 48 hrs; type: functional
[35] = molecular target: Phospholipase A2 (Apis mellifera, UniProt P00630); assay: Inhibition of bee venom phospholipase A2
Chain of Phospholipase A2 (P00630 whole entry): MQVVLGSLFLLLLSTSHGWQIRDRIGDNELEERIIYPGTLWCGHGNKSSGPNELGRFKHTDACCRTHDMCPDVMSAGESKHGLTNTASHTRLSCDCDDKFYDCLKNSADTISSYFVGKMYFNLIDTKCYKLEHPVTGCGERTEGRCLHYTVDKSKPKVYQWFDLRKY

[36] = tested on: MAC16; assay: Antiproliferative activity against mouse MAC16 cells assessed as reduction in cell viability incubated for 3 days by MTT assay; type: functional, cell-based; details: MAC16, 72 h
[37] = tested on: MAC16; assay: Antitumor activity in mouse MAC16 cells xenografted in NMRI mouse assessed as reduction in tumor weight administered after 2 days of transplantation and measured after 7 day; type: functional
[38] = tested on: MAC13; assay: Antiproliferative activity against mouse MAC13 cells assessed as reduction in cell viability incubated for 3 days by MTT assay; type: functional, cell-based; details: MAC13, 72 h

CCCCC1=C(Br)/C(=C/Br)OC1=O
inhibition (INH) [1]: 100% | Activity [2]: 25% | Activity [3]: 63%

O=C(O)Cc1ccccc1Nc1c(Cl)cccc1Cl [DICLOFENAC]
inhibition in vivo at 10 mg/kg [4]: 67.7% | inhibition in vivo at 10 mg/kg [5]: 78.6%

CC1=C(O)C(=O)CO1
IC50 [6]: 50 µM

C/C(=C\c1occ2cc3oc(=O)ccc3cc12)C1=CC(=O)C(C)(C)O1
IC50 [7]: 40 to 79 µM | IC50 [8]: 40 to 79 µM | IC50 [9]: 40 to 79 µM | IC50 [10]: 40 to 79 µM

COc1ccc(/C=C2/C=C(c3ccc(Br)cc3)OC2=O)cc1OC
IC50 [11]: 26.8 µg/mL (≈ 69.1 µM)

CCCC/C=C\C1=CC(C)OC1=O (stereo not drawn)
EC50 [12]: 54 µg/mL (≈ 300 µM) | EC50 [13]: 25 µg/mL (≈ 139 µM) | EC50 [14]: 56 µg/mL (≈ 311 µM) | EC50 [15]: 45 µg/mL (≈ 250 µM) | EC50 [16]: 61 µg/mL (≈ 338 µM)

COc1ccc(C2OC(=O)C(O)=C2I)cc1OC (stereo not drawn)
IC50 [17]: 10 µM | IC50 [18]: 10 µM | IC50 [19]: 10 µM

CC1C=C(c2ccc(Cl)c(Cl)c2)C(=O)O1 (stereo not drawn)
MIC [20]: > 125 µM | MIC [21]: 31.2 µM (≈ 7.6 µg/mL) | MIC [22]: 7.6 µg/mL (≈ 31.3 µM) | MIC [23]: 7.6 µg/mL (≈ 31.3 µM) | MIC [24]: > 125 µM | MIC [25]: 7.87 µM (≈ 1.91 µg/mL) | MIC [26]: 31.2 µM (≈ 7.6 µg/mL) | MIC [27]: > 125 µM | MIC [28]: 31.2 µM (≈ 7.6 µg/mL) | MIC [29]: 7.81 µM (≈ 1.9 µg/mL)

COC(=O)C[C@]1(O)OC(=O)C(C)=C1C
MIC [30]: 2.5 µg/mL (≈ 12.5 µM) | MIC [31]: 1.25 µg/mL (≈ 6.24 µM) | MIC [32]: 2 µg/mL (≈ 9.99 µM) | MIC [33]: 0.15 µg/mL (≈ 0.749 µM)

CC(C)O[C@@H]1OC(=O)[C@@H]2[C@H]1[C@@H]1C=C[C@H]2C1
LD50 [34]: 44.51 µM/g

O=C1OC(O)C(/C=C/c2ccccc2)=C1F (stereo not drawn)
IC50 [35]: 3 µM

O=C1OC(c2ccccc2)C(Cl)=C1Cl (stereo not drawn)
IC50 [36]: 50 µM | inhibition (INH) [37]: 24% | IC50 [38]: 50 µM
